# In patent publication USRE48461E1, “Modulation of androgen receptor expression” (Ionis Pharmaceuticals, Inc., priority 2012, dated 2021):
# Oligonucleotides are written 5' to 3', each unit as a sugar letter and its base; * is a phosphorothioate linkage, no mark a phosphodiester; rarer units and linkages stand in square brackets, end groups in braces. Plain capitals give the bases only. k = constrained ethyl (cEt); [5mC] = 5-methylcytosine; d = 2'-deoxy (DNA)
# What was measured:
# [1] = tested on: AR mRNA; assay: Antisense inhibition of human AR in HuVEC cells, single concentration (electroporation, qRT-PCR RTS3559); type: cell-based; conditions: 500 nM ASO, ~24 h, Table 18
# Outline: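 HuVEC cells electroporated with antisense oligonucleotides at a single concentration. AR mRNA quantified by qRT-PCR using human primer-probe set RTS3559 and normalised to total RNA content by RIBOGREEN.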
# [2] = tested on: AR mRNA; assay: Dose-dependent antisense inhibition of human AR in HuVEC cells (electroporation, qRT-PCR RTS3559, IC50); type: cell-based; conditions: HuVEC, electroporation, approximately 16 hours
# Outline: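 HuVEC cells dosed with antisense oligonucleotides by electroporation and treated approximately 16 hours. AR mRNA quantified by real-time qPCR with primer probe set RTS3559 and normalised to total RNA by RIBOGREEN; IC50 from dose-response.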
Substance,% inhibition [1] [%],"percent inhibition of AR, 46.9 nM ([2]; Table 31) [%]","percent inhibition of AR, 187.5 nM ([2]; Table 31) [%]","percent inhibition of AR, 750.0 nM ([2]; Table 31) [%]","percent inhibition of AR, 3000.0 nM ([2]; Table 31) [%]",IC50 ([2]; Table 31) [nM],"percent inhibition of AR, 46.9 nM ([2]; Table 30) [%]","percent inhibition of AR, 187.5 nM ([2]; Table 30) [%]","percent inhibition of AR, 750.0 nM ([2]; Table 30) [%]","percent inhibition of AR, 3000.0 nM ([2]; Table 30) [%]",IC50 ([2]; Table 30) [nM]
583714 (antisense kT*k[5mC]*k[5mC]*dA*dT*d[5mC]*d[5mC]*dT*dT*dG*dA*dG*d[5mC]*kT*kT*kG) [compound 583714],36,22,34,59,79,400,–,–,–,–,–
583719 (antisense kG*kT*kA*dG*dG*dT*d[5mC]*dT*dT*dG*dG*dA*d[5mC]*kG*kG*k[5mC]) [compound 583719],36,22,46,65,72,320,–,–,–,–,–
583727 (antisense kG*kA*kT*dT*d[5mC]*dT*dG*dG*dA*dA*dA*dG*d[5mC]*kT*k[5mC]*k[5mC]) [compound 583727],40,–,–,–,–,–,18,49,70,76,290
583728 (antisense kG*k[5mC]*kT*d[5mC]*dT*dG*dG*dA*dA*d[5mC]*dA*dG*dA*kT*kT*k[5mC]) [compound 583728],45,–,–,–,–,–,9,48,67,70,400
583731 (antisense k[5mC]*kG*k[5mC]*dG*d[5mC]*dA*d[5mC]*dG*d[5mC]*dT*d[5mC]*dT*dG*kG*kA*kA) [compound 583731],34,18,24,47,58,1310,–,–,–,–,–
583734 (antisense kT*k[5mC]*kA*d[5mC]*dT*dT*d[5mC]*dG*d[5mC]*dG*d[5mC]*dA*d[5mC]*kG*k[5mC]*kT) [compound 583734],46,–,–,–,–,–,29,60,74,75,120
583736 (antisense kT*kG*kG*dA*dT*d[5mC]*dA*d[5mC]*dT*dT*d[5mC]*dG*d[5mC]*kG*k[5mC]*kA) [compound 583736],47,–,–,–,–,–,21,38,60,63,510
583738 (antisense kG*kT*kT*d[5mC]*dT*dG*dG*dA*dT*d[5mC]*dA*d[5mC]*dT*kT*k[5mC]*kG) [compound 583738],36,–,–,–,–,–,16,40,56,71,510
583745 (antisense k[5mC]*kG*k[5mC]*dT*d[5mC]*dG*d[5mC]*dG*dG*d[5mC]*d[5mC]*dT*d[5mC]*kT*kG*kG) [compound 583745],40,–,–,–,–,–,19,51,68,77,270
583746 (antisense kT*kG*k[5mC]*dG*d[5mC]*dT*d[5mC]*dG*d[5mC]*dG*dG*d[5mC]*d[5mC]*kT*k[5mC]*kT) [compound 583746],32,24,44,65,67,350,–,–,–,–,–
583747 (antisense kG*k[5mC]*kT*dG*d[5mC]*dG*d[5mC]*dT*d[5mC]*dG*d[5mC]*dG*dG*k[5mC]*k[5mC]*kT) [compound 583747],35,13,38,50,69,640,–,–,–,–,–
